This is an account of results in patent publication US10736841B2, “Bepotastine compositions” (BAUSCH & LOMB INCORPORATED, priority 2011, dated 2020).

The nature of data set [1]: Drug substance description (solubility, hygroscopicity). The class given is physicochemical. An excerpt:
Bepotastine besilate is a white to off-white, odorless, crystalline powder. The bepotastine drug substance physiological mode of action is inhibition of histamine H1 receptors to relieve typical symptoms associated with allergic rhinitis. […] Fluticasone propionate is a white to off-white, crystalline synthetic trifluorinated corticosteroid used to treat inflammatory symptoms related to asthma and allergic rhinitis.

Data set [2] relates to microorganisms. Put plainly: USP 51 Preservative Efficacy Test (overall outcome). The class given is cell-based. As to conditions: BAK at a concentration of 0.200 mg/mL. From the text:
The term “preservative efficacy” or “preservative effectiveness” or “antimicrobial efficacy”, as used herein, means that the composition satisfies USP standards as defined in protocol <51> p. 1681, United States Pharmacopeia, 1995: Antimicrobial effectiveness testing; The United States Pharmacopeia, 32nd rev ed., and the National Formulary, 27th ed. Rockville, Md.: USPC; 2009. For example, the preservative is effective in the product examined if (a) the concentrations of viable bacteria are reduced to not more than 0.1% of the initial concentrations by the fourteenth day; (b) the concentrations of viable yeasts and molds remain at or below the initial concentrations during the first 14 days; and (c) the concentration of each test microorganism remains at or below these designated levels during the remainder of the 28-day test period. Similar criteria are defined for BP standards (Efficacy of Antimicrobial Preservation, Appendix XVI C, 1995), and PhEur standards (Efficacy of Antimicrobial Preservation, Chapter VIII. 14, 1992).
The compositions provided herein may include an effective amount of an antimicrobial preservative. Preservatives can be used to inhibit microbial growth (e.g., bacterial or yeast) in the compositions. An “effective amount” of a preservative is that amount necessary to prevent the growth of microorganisms in the composition. […]

Data set [3] can be described thus: Chemical stability studies at 25° C. and 40° C. in amber glass bottles. Type of data set: physicochemical. The procedure:
Chemical stability studies were performed to determine if the formulation would likely achieve a commercially practical shelf-life. Studies were performed at 25° C. and 40° C. in moisture impermeable amber glass bottles.

The conditions of data set [4]: cited from earlier work.

Like-named read-outs stand apart in the source and are kept apart here.

In the case of `O=C(O)CCCN1CCC(O[C@@H](c2ccc(Cl)cc2)c2ccccn2)CC1.O=S(=O)(O)c1ccccc1` [Bepotastine besilate, (+)-(S)-4-[4-[(4-chlorophenyl)(2-pyridyl)methoxy]piperidino]butyric acid], the hygroscopicity result in data set [1] (drug substance powder) is given as “non-hygroscopic”. The “dissolution in the nasal spray formulation vehicle” value in data set [1] (nasal spray formulation vehicle) is reported as “dissolves readily”.
For the molecule benzalkonium chloride [BAK], the effectiveness as preservative entry in data set [2] was “effective preservative”.
Take `O=C(O)CCCN1CCC(O[C@@H](c2ccc(Cl)cc2)c2ccccn2)CC1` [Bepotastine, (+)-(S)-4-[4-[(4-chlorophenyl)(2-pyridyl)methoxy]piperidino]butyric acid]: the “impurities found during stability evaluation” value in data set [3] is “only impurity found was the ethyl ester precursor of bepotastine”.
For `CCC(=O)O[C@]1(C(=O)SCF)[C@H](C)C[C@H]2[C@@H]3C[C@H](F)C4=CC(=O)C=C[C@]4(C)[C@@]3(F)[C@@H](O)C[C@@]21C` [fluticasone propionate, Fluticasone propionate], the solubility in water result is on record as “practically insoluble” in data set [4] and “insoluble” in data set [4] (listed as fluticasone).
